The source of these data is patent US11759455B2, “Substituted 1H-imidazo[4,5-b]pyridin-2(3H)-ones and their use as GLUN2B receptor modulators” (JANSSEN PHARMACEUTICA NV, priority 2016, dated 2023).

Molecules are shown by their SMILES. Where two headings read alike, the source gives them in different places. Bounds are passed on as bounds.

In this assay the target is T1, human GluN1/GluN2B NMDA receptors (Homo sapiens, UniProt Q13224).
T1 construct: expressed in transfected cells
The experiment in a line: Cell-based calcium flux (FLIPR) assay on cloned human NR1/NR2B ion channels expressed in mammalian cells (standard and HTS buffer variants).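 Note: stable Tet-On inducible cell line, Ca2+ influx triggered by glutamate at about EC40 plus 10 µM glycine, fluorescent dye read-out over 5 min, normalized to control wells.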 Background: Calcium assays in cells follow changes in intracellular calcium, usually with a dye or a luminescent sensor.

[1] abbreviates: standard assay buffer (0.5 mM MgCl2 dye loading; 137 mM NaCl, 4 mM KCl assay buffer), human GluN1/GluN2B cells, read-out: NR2B IC50 (μM) standard assay.
The mark [2] stands for this setting: standard assay buffer (0.5 mM MgCl2 in dye loading buffer; 137 mM NaCl, 4 mM KCl in assay buffer), human GluN1/GluN2B, read-out: NR2B IC50 (μM) standard assay.

T1 sequence (Q13224 27-1484, other chains not shown): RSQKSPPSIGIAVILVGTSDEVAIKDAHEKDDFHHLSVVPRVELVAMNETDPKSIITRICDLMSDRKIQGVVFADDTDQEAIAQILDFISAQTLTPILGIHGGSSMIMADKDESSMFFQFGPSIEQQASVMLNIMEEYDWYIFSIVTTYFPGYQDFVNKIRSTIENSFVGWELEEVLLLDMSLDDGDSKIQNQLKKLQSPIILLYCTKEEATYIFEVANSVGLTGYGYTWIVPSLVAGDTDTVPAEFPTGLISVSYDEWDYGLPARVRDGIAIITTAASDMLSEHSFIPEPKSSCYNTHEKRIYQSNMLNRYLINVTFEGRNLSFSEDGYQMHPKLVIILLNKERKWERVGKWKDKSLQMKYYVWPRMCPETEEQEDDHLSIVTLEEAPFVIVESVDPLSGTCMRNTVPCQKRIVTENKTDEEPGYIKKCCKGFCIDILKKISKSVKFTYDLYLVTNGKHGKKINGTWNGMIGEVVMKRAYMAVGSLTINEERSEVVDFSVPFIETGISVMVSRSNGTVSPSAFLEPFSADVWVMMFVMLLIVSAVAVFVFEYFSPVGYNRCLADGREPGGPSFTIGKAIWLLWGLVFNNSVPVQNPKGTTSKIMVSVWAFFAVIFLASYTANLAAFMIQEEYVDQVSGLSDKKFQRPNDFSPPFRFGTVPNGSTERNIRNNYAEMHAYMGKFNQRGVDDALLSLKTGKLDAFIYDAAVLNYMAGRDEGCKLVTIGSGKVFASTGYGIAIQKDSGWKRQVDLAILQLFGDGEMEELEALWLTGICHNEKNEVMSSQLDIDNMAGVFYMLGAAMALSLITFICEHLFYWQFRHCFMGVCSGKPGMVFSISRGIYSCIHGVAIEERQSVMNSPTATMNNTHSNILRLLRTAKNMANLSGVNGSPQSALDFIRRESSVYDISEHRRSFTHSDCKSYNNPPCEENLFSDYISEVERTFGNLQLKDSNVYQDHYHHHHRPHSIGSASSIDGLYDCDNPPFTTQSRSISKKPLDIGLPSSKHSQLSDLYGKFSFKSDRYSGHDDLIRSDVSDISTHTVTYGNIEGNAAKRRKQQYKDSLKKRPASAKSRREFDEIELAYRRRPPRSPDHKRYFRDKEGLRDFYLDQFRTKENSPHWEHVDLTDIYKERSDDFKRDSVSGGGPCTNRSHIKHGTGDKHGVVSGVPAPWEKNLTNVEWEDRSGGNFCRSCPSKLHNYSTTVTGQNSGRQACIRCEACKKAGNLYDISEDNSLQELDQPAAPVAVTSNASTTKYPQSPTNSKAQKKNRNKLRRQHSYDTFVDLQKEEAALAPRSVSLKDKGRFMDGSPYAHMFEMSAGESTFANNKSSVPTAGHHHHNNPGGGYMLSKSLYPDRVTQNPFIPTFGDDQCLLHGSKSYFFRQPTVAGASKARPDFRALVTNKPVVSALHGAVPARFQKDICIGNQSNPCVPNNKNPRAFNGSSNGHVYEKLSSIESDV

For the molecule `O=c1[nH]c2ncc(-c3cccc(F)c3)cc2n1Cc1ccccn1` [Example 281, 6-(3-Fluorophenyl)-1-(2-pyridylmethyl)-3H-imidazo[4,5-b]pyridin-2-one], under setting [1], the half-maximal inhibitory concentration (IC50) amounted to 0.932 µM. For the molecule `Cn1c(=O)n(Cc2cccnn2)c2cc(-c3ccc(F)c(C(F)(F)F)c3)cnc21` [Example 382, 6-[4-Fluoro-3-(trifluoromethyl)phenyl]-3-methyl-1-(pyridazin-3-ylmethyl)imidazo[4,5-b]pyridin-2-one], the half-inhibitory concentration (IC50) under setting [2] amounted to 0.016 µM. The same measure, in the same setting: under `Cc1ccc(-c2cnc3c(c2)n(Cc2cnn(C)c2)c(=O)n3C)s1` [Example 555, 3-Methyl-1-[(1-methylpyrazol-4-yl)methyl]-6-(5-methyl-2-thienyl)imidazo[4,5-b]pyridin-2-one] stands 1.31 µM; under `CN(C)c1cccc(-c2cnc3[nH]c(=O)n(Cc4cccc(F)c4)c3c2)c1` [Example 500, 6-[3-(Dimethylamino)phenyl]-1-[(3-fluorophenyl)methyl]-3H-imidazo[4,5-b]pyridin-2-one], 6.08 µM. As to `Cc1cccnc1Cn1c(=O)[nH]c2ncc(-c3cccc(F)c3F)cc21` [Example 319, 6-(2,3-Difluorophenyl)-1-[(3-methyl-2-pyridyl)methyl]-3H-imidazo[4,5-b]pyridin-2-one], the IC50 under setting [2] was over 10 µM.

As to `O=c1[nH]c2ncc(-c3cccc(C(F)(F)F)c3)cc2n1CCN1CC(C(F)(F)F)C1` [Example 166, 1-[2-[3-(Trifluoromethyl)azetidin-1-yl]ethyl]-6-[3-(trifluoromethyl)phenyl]-3H-imidazo[4,5-b]pyridin-2-one], the 50% inhibitory concentration (IC50) under setting [1] amounted to 3.48 µM. For `O=c1[nH]c2ncc(-c3ccc(F)c(F)c3)cc2n1Cc1ccccn1` [Example 279, 6-(3,4-Difluorophenyl)-1-(2-pyridylmethyl)-3H-imidazo[4,5-b]pyridin-2-one], the IC50 under setting [1] was 5.03 µM. On the same count and under the same terms, the result for `COc1ccc(Cn2c(=O)[nH]c3ncc(-c4cccc(C(F)(F)F)c4)cc32)cc1F` [Example 220, 1-[(3-Fluoro-4-methoxy-phenyl)methyl]-6-[3-(trifluoromethyl)phenyl]-3H-imidazo[4,5-b]pyridin-2-one] reads 1.65 µM. Regarding `CCC(=O)Cn1c(=O)[nH]c2ncc(-c3cccc(F)n3)cc21` [Example 537, 6-(6-Fluoro-2-pyridyl)-1-(2-oxobutyl)-3H-imidazo[4,5-b]pyridin-2-one], the IC50 under setting [2] amounted to 0.273 µM. In the case of `Cn1c(=O)n(Cc2cnccn2)c2cc(-c3ccc(F)c(F)c3)cnc21` [Example 63, 6-(3,4-Difluorophenyl)-3-methyl-1-(pyrazin-2-ylmethyl)imidazo[4,5-b]pyridin-2-one], the half-maximal inhibitory concentration (IC50) under setting [1] was 2.3 µM. Take `Cn1c(=O)n(Cc2cccnn2)c2cc(-c3cc(C(F)F)ccc3F)cnc21` [Example 385, 6-(5-(Difluoromethyl)-2-fluorophenyl)-3-methyl-1-(pyridazin-3-ylmethyl)-1,3-dihydro-2H-imidazo[4,5-b]pyridin-2-one]: under setting [2], the IC50 stood at 0.653 µM. Consider `Cc1cc(C)cc(-c2cnc3[nH]c(=O)n(Cc4cccc(F)c4)c3c2)c1` [Example 495, 6-(3,5-Dimethylphenyl)-1-[(3-fluorophenyl)methyl]-3H-imidazo[4,5-b]pyridin-2-one], for which the 50% inhibitory concentration (IC50) (HTS assay buffer (1.5 mM MgCl2 in dye loading buffer; 150 mM NaCl, 3 mM KCl in assay buffer), human GluN1/GluN2B, read-out: NR2B IC50 (μM) HTS assay) came to 2.81 µM. For the molecule `Cn1c(=O)n(CC(=O)NC2CC(F)(F)C2)c2cc(-c3cccc(C(F)(F)F)c3)cnc21` [Example 200, N-(3,3-Difluorocyclobutyl)-2-[3-methyl-2-oxo-6-[3-(trifluoromethyl)phenyl]imidazo[4,5-b]pyridin-1-yl]acetamide], the 50% inhibitory concentration (IC50) under setting [1] came out at 0.174 µM. For `Cc1cc(F)ccc1-c1cnc2c(c1)n(CC(=O)NC1CC1)c(=O)n2C` [Example 42, N-Cyclopropyl-2-[6-(4-fluoro-2-methyl-phenyl)-3-methyl-2-oxo-imidazo[4,5-b]pyridin-1-yl]acetamide], where the note is “HTS assay buffer (1.5 mM MgCl2 dye loading; 150 mM NaCl, 3 mM KCl assay buffer), human GluN1/GluN2B cells, read-out: NR2B IC50 (μM) HTS assay”, the half-maximal inhibitory concentration (IC50) turned out to be 2.71 µM. For the molecule `CN(C)C(=O)Cn1c(=O)n(C)c2ncc(-c3cccnc3)cc21` [Example 429, N,N-Dimethyl-2-[3-methyl-2-oxo-6-(3-pyridyl)imidazo[4,5-b]pyridin-1-yl]acetamide], the 50% inhibitory concentration (IC50) under setting [2] was over 10 µM.

The IC50 is the concentration at which inhibition is half-maximal.
